US20020128256A1, “Methods for the treatment or prevention of inflammatory diseases characterized by abnormal cell proliferation” (priority 1997, published 2002)
Like-named read-outs stand apart in the source and are kept apart here.

Legend:
[1] = molecular target: T1, Gardos channel of erythrocytes (Homo sapiens, UniProt O15554); assay: Gardos Channel Assay; format: cell-based; details: for inhibition at 10 µM: read-out: Gardos Channel Assay Inhibition (%)
T1 construct: endogenous in cells; host or cells: erythrocytes

[2] = system: NIH 3T3 mouse fibroblast cells; assay: Mitogenic Assay (mitogen-induced cell proliferation); format: cell-based
[3] = system: HeLa; assay: SRB antiproliferative assay, HeLa; format: cell-based; details: Homo sapiens, HeLa, 120 h, read-out: SRB assay IC50
Experimental: (§1) The antiproliferative assays described herein were performed using standard aseptic procedures and universal precautions for the use of tissues. Cells were propagated using RPMI 1640 media (Gibco) containing 2% N 5% fetal calf serum (Biowhittaker) at 37° C., 5% CO2 and 95% humidity. The cells were passaged using Trypsin (Gibco). Prior to addition of test compound, the cells were harvested, the cell number counted and seeded at 10,000 cells/well in 100 μl 5% fetal calf serum (FCS) containing RPMI medium in 96-well plates and incubated overnight at 37° C., 5% CO2 and 95% humidity.
(§2) Following incubation, the cellular protein was determined with the ulforhodamine B (SRB) assay (Skehan P et al., 1990, J. Natl. Cancer Inst. 82:1107-1112).

[4] = system: CaSki; assay: SRB antiproliferative assay, CaSki; format: cell-based; details: Homo sapiens, Ca-Ski, 120 h, read-out: SRB assay IC50
Experimental: as §1, §2

[5] = system: MDA-MB-231; assay: SRB antiproliferative assay, MDA-MB-231; format: cell-based; details: Homo sapiens, 120 h, read-out: SRB assay IC50
[6] = system: MCF7; assay: SRB antiproliferative assay, MCF7; format: cell-based; details: Homo sapiens
Experimental: as §1, §2

[7] = system: A549; assay: SRB antiproliferative assay, A549; format: cell-based; details: Homo sapiens
Experimental: as §1, §2

[8] = system: HTB174; assay: SRB antiproliferative assay, HTB174; format: cell-based; details: 120 h, read-out: SRB assay IC50
Experimental: as §1, §2

[9] = system: HEPG2; assay: SRB antiproliferative assay, HEPG2; format: cell-based; details: Homo sapiens
Experimental: as §1, §2

[10] = system: DU-145; assay: SRB antiproliferative assay, DU-145; format: cell-based; details: Homo sapiens, DU-145, 120 h, read-out: SRB assay IC50
Experimental: as §1, §2

[11] = system: SK-MEL-28; assay: SRB antiproliferative assay, SK-MEL-28; format: cell-based; details: Homo sapiens, SK-MEL-28, 120 h, read-out: SRB assay IC50
Experimental: as §1, §2

[12] = system: MMRU; assay: SRB antiproliferative assay, MMRU; format: cell-based, human; details: Homo sapiens
Experimental: Cells were propagated using RPMI 1640 media (Gibco) containing 2% N 5% fetal calf serum (Biowhittaker) at 37° C., 5% CO2 and 95% humidity. The cells were passaged using Trypsin (Gibco). Prior to addition of test compound, the cells were harvested, the cell number counted and seeded at 10,000 cells/well in 100 μl 5% fetal calf serum (FCS) containing RPMI medium in 96-well plates and incubated overnight at 37° C., 5% CO2 and 95% humidity.
as §2

[13] = system: HT29; assay: SRB antiproliferative assay, HT29; format: cell-based; details: Homo sapiens
Experimental: as §1, §2

[14] = system: HCT-15; assay: SRB antiproliferative assay, HCT-15; format: cell-based; details: Homo sapiens, HCT-15, 120 h, read-out: SRB assay IC50
Experimental: as §1, §2

[15] = system: ACHN; assay: SRB antiproliferative assay, ACHN; format: cell-based; details: Homo sapiens, ACHN, 120 h, read-out: SRB assay IC50
Experimental: as §1, §2

[16] = system: U118MG; assay: SRB antiproliferative assay, U118MG; format: cell-based; details: Homo sapiens, U-118-MG
Experimental: as §1, §2

[17] = system: HUVEC; assay: SRB assay, normal cells HUVEC; format: cell-based, human; details: Homo sapiens, HUVEC, 120 h, read-out: SRB assay IC50
Experimental: as §1, §2

[18] = system: GM; assay: SRB assay, normal cells GM; format: cell-based, human; details: Homo sapiens, 120 h, read-out: SRB assay IC50
Experimental: as §1, §2

[19] = system: 3T3; assay: SRB assay, normal cells 3T3; format: cell-based, mouse; details: Mus musculus, NIH3T3, 120 h, read-out: SRB assay IC50
Experimental: as §1, §2

[20] = system: L929; assay: SRB assay, normal cells L929; format: cell-based, mouse; details: Mus musculus, L929, 120 h, read-out: SRB assay IC50
Experimental: as §1, §2

[21] = molecular target: Gardos channel (Homo sapiens, UniProt O15554); design: host or cells: sickle erythrocytes (printed for Clotrimazole only); details: cited from earlier work
[22] = erythrocytes, read-out: Gardos Channel Assay IC50
[23] = measured at 10 μM compound, NIH 3T3 cells
[24] = Mus musculus, NIH3T3, measured at 10 μM compound, NIH 3T3 cells, read-out: Mitogenic Assay Inhibition (%)
[25] = NIH 3T3 mouse fibroblast cells, mitogen-induced proliferation, read-out: Mitogenic Assay IC50
[26] = MCF7, 120 h, read-out: SRB assay IC50
[27] = A549, 120 h, read-out: SRB assay IC50
[28] = HepG2, 120 h, read-out: SRB assay IC50
[29] = 120 h, read-out: SRB assay IC50
[30] = HT-29, 120 h, read-out: SRB assay IC50
[31] = NIH3T3, NIH 3T3 mouse fibroblast cells, mitogen-induced proliferation, read-out: Mitogenic Assay IC50

T1 sequence (O15554 whole entry): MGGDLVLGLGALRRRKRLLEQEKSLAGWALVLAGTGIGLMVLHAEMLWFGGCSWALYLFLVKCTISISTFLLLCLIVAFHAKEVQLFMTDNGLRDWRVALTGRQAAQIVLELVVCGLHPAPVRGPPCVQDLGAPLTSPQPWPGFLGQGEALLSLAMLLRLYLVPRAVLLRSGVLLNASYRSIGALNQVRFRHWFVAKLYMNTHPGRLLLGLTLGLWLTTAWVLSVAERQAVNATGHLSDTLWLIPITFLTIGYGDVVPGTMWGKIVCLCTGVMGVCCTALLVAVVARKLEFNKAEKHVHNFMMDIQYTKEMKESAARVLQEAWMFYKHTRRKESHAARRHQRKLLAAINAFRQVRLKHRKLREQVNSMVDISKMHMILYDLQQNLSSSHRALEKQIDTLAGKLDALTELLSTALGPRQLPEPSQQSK
Sequence of Gardos channel (O15554 whole entry): as above

Work on O/N=C1\CC(c2ccccc2)(c2ccccc2)c2ccccc21 [Compound 4, 1-N-Oxime-3,3-Diphenylindane] yielded an IC50 [1, 22] of 1350 nM, an inhibition at 10 µM ([1]; measured at 10 μM compound) of 100% and a melting point of 138 to 141 °C.
With “3,3-Diphenyl-1-indanyl α-(4-methyltoluate) ether [Compound 17]” the “Mitogenic Assay Inhibition (%)” value [2, 23] was 76.0% and the “Gardos Channel Assay Inhibition (%)” value ([1]; measured at 10 μM compound) was 0%.
In the case of NC(=O)CC1C(O)c2ccccc2C1(c1ccccc1)c1ccccc1 (stereo not drawn) [Compound 14, 2-Acetamide-3,3-diphenylindanol], the inhibition at 10 µM [2, 24] is reported as 3%, the IC50 [1, 22] is reported as 2960 nM and the inhibition at 10 µM ([1]; measured at 10 μM compound) is reported as 90.5%. For the same compound, the melting point was 218 to 220 °C.
N#CCC1C(=O)c2ccccc2C1(c1ccccc1)c1ccccc1 (stereo not drawn) [Compound 9, 2-cyanomethyl-3,3-diphenylindanone] showed an IC50 [1, 22] of 505 nM and an inhibition at 10 µM [1] of 100%.
NC(=O)CC1C(=O)c2ccccc2C1(c1ccccc1)c1ccccc1 (stereo not drawn) [Compound 12, 2-Acetamide-3,3-diphenylindanone] showed an IC50 [1, 22] of 189 nM, an inhibition at 10 µM ([1]; measured at 10 μM compound) of 99.5% and a melting point of 169 to 171 °C.
O=C1CC(c2ccccc2)(c2ccccc2)c2ccccc21 [Compound 2, 3,3-Diphenylindanone] showed an IC50 [1, 22] of 1010 nM and an inhibition at 10 µM ([1]; measured at 10 μM compound) of 100%.
For COC(=O)CC1C(=O)c2ccccc2C1(c1ccccc1)c1ccccc1 (stereo not drawn) [Compound 15, 3,3-Diphenylindanone-2-methyl acetate], the IC50 [2, 25] was 7500 nM, the “Mitogenic Assay Inhibition (%)” value [2, 23] was 80.0% and the IC50 [1, 22] was 2900 nM. For the same compound, the “Gardos Channel Assay Inhibition (%)” value ([1]; measured at 10 μM compound) was 54.8%.
With O=C1CC(c2ccc(Cl)cc2)(c2ccc(Cl)cc2)c2ccc(Cl)cc21 [Compound 8, 6-Chloro-3,3-di(4-chlorophenyl)indanone] the IC50 ([2]; Mus musculus, NIH3T3, read-out: Mitogenic Assay IC50) was 2000 nM, the inhibition at 10 µM ([2]; Mus musculus, NIH3T3, read-out: Mitogenic Assay Inhibition (%)) was 97% and the IC50 [3] was over 10000 nM. It also gave an IC50 [4] of 6800 nM, an IC50 [5] of over 10000 nM and an IC50 [6, 26] of 5500 nM. It also gave an IC50 ([6]; MCF7, read-out: SRB IC50) of over 10000 nM, an IC50 [7, 27] of 8900 nM and an IC50 ([7]; A549, read-out: SRB IC50) of over 10000 nM. The IC50 [8] was over 10000 nM, the IC50 [9, 28] was 6400 nM and the IC50 ([9]; HepG2, read-out: SRB IC50) was 7800 nM. The IC50 [10] was over 10000 nM, the IC50 [11] was over 10000 nM and the IC50 [12, 29] was over 10000 nM. It also gave an IC50 ([12]; read-out: SRB IC50) of 3300 nM, an IC50 [13, 30] of 8300 nM and an IC50 ([13]; HT-29, read-out: SRB IC50) of over 10000 nM. It also gave an IC50 [14] of over 10000 nM, an IC50 [15] of over 10000 nM and an IC50 [16, 29] of over 10000 nM. The IC50 ([16]; read-out: SRB IC50) was over 10000 nM, the IC50 [17] was over 10000 nM and the IC50 [18] was over 10000 nM. The IC50 [19] was over 10000 nM, the IC50 [20] was over 10000 nM and the melting point was 134 °C.
For Clc1ccc(COC(Cn2ccnc2)c2ccc(Cl)cc2Cl)c(Cl)c1 (stereo not drawn) [miconazole], the “Gardos channel inhibition in vitro” value [21] is given as “inhibit the Gardos channel in vitro”.
Compound O=C1c2ccccc2C(c2ccccc2)(c2ccccc2)C1CCCO (stereo not drawn) [Compound 19, 3-(3′,3′-diphenyl-2′-indanyl-1′-one)propanol] has an IC50 [1] of 5950 nM, an inhibition at 10 µM [1] of 43.7% and a melting point of 98 °C.
In the case of Clc1ccc(COC(Cn2ccnc2)c2ccc(Cl)cc2Cl)cc1 (stereo not drawn) [econazole], the “Gardos channel inhibition in vitro” value [21] is given as “inhibit the Gardos channel in vitro”.
For N#CC1OC12CC(c1ccccc1)(c1ccccc1)c1ccccc12 (stereo not drawn) [Compound 5, Spiro[3,3-diphenyl-2,3-dihydro(1H)indene-1,3′-2′-cyanooxirane]], the “Mitogenic Assay Inhibition (%)” value [2, 23] was 29.0% and the “Gardos Channel Assay Inhibition (%)” value ([1]; measured at 10 μM compound) was 67.3%.
With COc1cc([C@@H]2c3cc4c(cc3[C@@H](O[C@@H]3O[C@@H]5CO[C@@H](C)O[C@H]5[C@H](O)[C@H]3O)[C@H]3COC(=O)[C@H]23)OCO4)cc(OC)c1O [VP-16, Etoposide (VP-16), reference compound] the IC50 [3] was under 1250 nM, the IC50 [4] was 1800 nM and the IC50 [5] was under 1250 nM. The IC50 [6, 26] was under 1250 nM, the IC50 ([6]; MCF7, read-out: SRB IC50) was under 2500 nM and the IC50 [7, 27] was under 1250 nM. It also gave an IC50 ([7]; A549, read-out: SRB IC50) of 2300 nM, an IC50 [8] of under 1250 nM and an IC50 [9, 28] of under 1250 nM. The IC50 [10] was under 1250 nM, the IC50 [11] was under 1250 nM and the IC50 [12, 29] was under 1250 nM. It also gave an IC50 ([12]; read-out: SRB IC50) of under 2500 nM, an IC50 [13, 30] of under 1250 nM and an IC50 ([13]; HT-29, read-out: SRB IC50) of 20000 nM. The IC50 [14] was 1300 nM, the IC50 [15] was under 1250 nM and the IC50 [16, 29] was 2200 nM. The IC50 [17] was under 1250 nM, the IC50 [18] was 1400 nM and the IC50 [20] was under 1250 nM.
Compound N#CCC1C(=O)c2cc(Cl)ccc2C1(c1ccc(Cl)cc1)c1ccc(Cl)cc1 (stereo not drawn) [Compound 10, 6-Chloro-2-cyanomethyl-3,3-di(4′-chlorophenyl)indanone] has an inhibition at 10 µM [2, 24] of 98%, an IC50 [2, 31] of 3300 nM and an inhibition at 10 µM ([1]; measured at 10 μM compound) of 49.5%.
In the case of “2-(Ethyl-2′-(1,3-dioxolane))-1-hydroxy-3,3-diphenylindene [Compound 20]”, the “Mitogenic Assay Inhibition (%)” value [2, 23] is reported as 81.0% and the “Gardos Channel Assay Inhibition (%)” value ([1]; measured at 10 μM compound) is reported as 0%.
In the case of OC1CC(c2ccccc2)(c2ccccc2)c2ccccc21 (stereo not drawn) [Compound 3, 1-Hydroxy-3,3-Diphenylindane], the IC50 [1, 22] is reported as 819 nM, the inhibition at 10 µM [1] is reported as 100% and the melting point is reported as 133 to 135 °C.
With C=CCOC1c2ccccc2C(c2ccccc2)(c2ccccc2)C1CC=C (stereo not drawn) [Compound 6, 2-(2′-Propenyl)-1-(2′-propenoxy)-3,3-diphenylindane] the IC50 [2, 25] was 3400 nM, the “Mitogenic Assay Inhibition (%)” value [2, 23] was 90.0% and the “Gardos Channel Assay Inhibition (%)” value ([1]; measured at 10 μM compound) was 35.0%.
Compound CC(=O)OC1CC(c2ccccc2)(c2ccccc2)c2ccccc21 (stereo not drawn) [Compound 7, 1-Acetoxy-3,3-diphenylindane] has an IC50 [1] of 1150 nM, an inhibition at 10 µM ([1]; measured at 10 μM compound) of 88% and a melting point of 90 °C.
Compound NC1=Nc2ccccc2C1(c1ccccc1)c1ccccc1 [Compound 1] has an inhibition at 10 µM [2, 24] of 97%, an IC50 [2, 31] of 700 nM and an IC50 [1, 22] of 419 nM. It also gave an inhibition at 10 µM ([1]; measured at 10 μM compound) of 98%.
In the case of Clc1ccccc1COC1CC(c2ccccc2)(c2ccccc2)c2ccccc21 (stereo not drawn) [Compound 18, 3,3-Diphenyl-1-indanyl α-(2-chlorotoluyl) ether], the “Mitogenic Assay Inhibition (%)” value [2, 23] is reported as 73.0% and the “Gardos Channel Assay Inhibition (%)” value ([1]; measured at 10 μM compound) is reported as 0%.
Work on N#CCC1C(O)c2ccccc2C1(c1ccccc1)c1ccccc1 (stereo not drawn) [Compound 13, 2-Cyanomethyl-3,3-diphenylindanol] yielded an inhibition at 10 µM [2, 24] of 12%, an IC50 [1, 22] of 1590 nM and an inhibition at 10 µM ([1]; measured at 10 μM compound) of 99.5%. For the same compound, the melting point was 79 to 85 °C.
In the case of Clc1ccc(CCC(Cn2ccnc2)Sc2c(Cl)cccc2Cl)cc1 (stereo not drawn) [butoconazole], the “Gardos channel inhibition in vitro” value [21] is given as “inhibit the Gardos channel in vitro”.
Work on c1ccc(C2(c3ccccc3)CC(OCc3ccc4ccccc4c3)c3ccccc32)cc1 (stereo not drawn) [Compound 16, 3,3-Diphenyl-1-indanyl 2-naphthylmethyl ether] yielded an inhibition at 10 µM [2, 24] of 75% and an inhibition at 10 µM ([1]; measured at 10 μM compound) of 0%.
